Target: T1, human M4 muscarinic acetylcholine receptor (Homo sapiens, UniProt P08173)
T1 construct: expressed in transfected cells; host or cells: CHO-K1
T1 sequence (P08173 1-479): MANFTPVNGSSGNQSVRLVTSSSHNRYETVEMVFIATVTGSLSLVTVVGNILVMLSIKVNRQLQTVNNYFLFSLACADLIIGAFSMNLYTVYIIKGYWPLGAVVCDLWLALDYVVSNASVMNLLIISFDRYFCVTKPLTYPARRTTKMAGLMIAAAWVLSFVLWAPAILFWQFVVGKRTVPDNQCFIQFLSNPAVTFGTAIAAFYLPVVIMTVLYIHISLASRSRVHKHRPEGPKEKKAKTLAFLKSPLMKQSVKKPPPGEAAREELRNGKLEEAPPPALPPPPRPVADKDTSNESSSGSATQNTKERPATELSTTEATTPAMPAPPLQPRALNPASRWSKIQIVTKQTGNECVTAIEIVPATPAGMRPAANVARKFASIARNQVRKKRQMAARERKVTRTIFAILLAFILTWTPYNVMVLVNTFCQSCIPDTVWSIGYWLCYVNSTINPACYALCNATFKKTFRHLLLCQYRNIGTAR
Experiment: human FLIPR-based M4 PAM assay (CHO-K1 cells with human M4 receptor and Gaqi5, calcium dye fluorescence)
Assay type: cell-based
Settings: inflection point (IP) of dose response curve, acetylcholine added at 20% of maximum response, read-out: M4 FLIPPR Hu IP
Description: (§1) In a typical experiment the M4 muscarinic acetylcholine receptor modulating activity of the compounds of the present invention was determined in accordance with the following experimental method. CHO-K1 cells stably transfected with human M4 receptor and chimeric G-protein Gaqi5 (Coward P, et al., Analytical Biochemistry, 270:242-248 (1999)) are thawed from liquid N2 storage, resuspended in growth medium, plated in black, clear bottom 384 well plates, and incubated 16-20 hours at 37° C., 5% CO2. On the day of assay, growth medium is removed, the cells are washed 2 times with wash buffer, and cells are incubated in dye loading buffer at 37° C., 5% CO2 for ˜1 hour. Following dye loading the cell plates are placed in a FLIPR Tetra instrument and while monitoring dye fluorescence (excitation 470-495 […]), 10 uL of test substance at increasing concentrations is added, and fluorescence values are recorded for 4 min. Next, 10 uL of acetylcholine is added (final concentration calculated so as to achieve 20% of the maximum acetycholine response), and the fluorescence reading is continued for 3.5 min. In some cases, a third addition of acetylcholine (final concentration calculated to achieve 70% of the maximal acetylcholine response) is performed. The resulting dose response curves are fit to a 4 parameter logistic equation and the final result is determined as the inflection point (IP) of the curve
as §1, with “CHO-K1” for “In a typical experiment the M4 muscarinic acetylcholine receptor modulating activity of the compounds of the present invention was determined in accordance with the following experimental method. CHO-K1”, “Gaqi5” for “Gaqi5 (Coward P, et al., Analytical Biochemistry, 270:242-248 (1999))”, “performed.” for “performed. The resulting dose response curves are fit to a 4 parameter logistic equation and the final result is determined as the inflection point (IP) of the curve”

| Structure (SMILES) | EC50 |
| --- | --- |
| Cc1ccc(-c2cnn(CC3CCCC3)c2)c(-c2ccc3cc(F)cnc3c2)n1 [Example 13, 7-(3-(1-(cyclopentylmethyl)-1H-pyrazol-4-yl)-6-methylpyridin-2-yl)-3-fluoroquinoline] | 23 nM |
| Cc1ccc(-c2cnn(CC3(F)CCCC3)c2)c(-c2ccc3cc(C(F)(F)F)cnc3c2)n1 [Example 14, 7-(3-(1-((1-fluorocyclopentyl)methyl)-1H-pyrazol-4-yl)-6-methylpyridin-2-yl)-3-(trifluoromethyl)quinoline] | 30 nM |
| Cc1ccc(-c2cnn(CC3(F)CCCC3)c2)c(-c2ccc3c(c2)ncn3C)n1 [Example 16, 5-(3-(1-((1-fluorocyclopentyl)methyl)-1H-pyrazol-4-yl)-6-methylpyridin-2-yl)-1-methyl-1H-benzo[d]imidazole] | 34 nM |
| Cc1ccc(-c2cnn(CC3(F)CCCC3)c2)c(-c2ccc3c(c2)C(=O)NC3)n1 [Example 17, 6-(3-(1-((1-fluorocyclopentyl)methyl)-1H-pyrazol-4-yl)-6-methylpyridin-2-yl)isoindolin-1-one] | 26 nM |
| Cc1ccc(-c2cnn(CC3(F)CCCC3)c2)c(-c2cnc3c(c2)ncn3C)n1 [Example 18, 6-(3-(1-((1-fluorocyclopentyl)methyl)-1H-pyrazol-4-yl)-6-methylpyridin-2-yl)-3-methyl-3H-imidazo[4,5-b]pyridine] | 187 nM |
| Cc1ccc(-c2cnn(CC3(F)CCCC3)c2)c(-c2ccc3c(c2)C(=O)N(CC2CC2)C3)n1 [Example 19, 2-(cyclopropylmethyl)-6-(3-(1-((1-fluorocyclopentyl)methyl)-1H-pyrazol-4-yl)-6-methylpyridin-2-yl)isoindolin-1-one] | 20 nM |
| Cc1ccc(-c2cnn(CC3(F)CCCC3)c2)c(-c2ccc3c(c2)C(=O)N(C2CC2)C3)n1 [Example 20, 2-cyclopropyl-6-(3-(1-((1-fluorocyclopentyl)methyl)-1H-pyrazol-4-yl)-6-methylpyridin-2-yl)isoindolin-1-one] | 24 nM |
| Cc1ccc(-c2cnn(CC3(F)CCCC3)c2)c(-c2ccc3cc(F)cnc3c2)n1 [Example 21, 3-fluoro-7-(3-(1-((1-fluorocyclopentyl)methyl)-1H-pyrazol-4-yl)-6-methylpyridin-2-yl)quinoline] | 16 nM |
| Cc1ccc(-c2cnn(CC3(F)CCCC3)c2F)c(-c2ccc3cccnc3c2)n1 [Example 22, 7-(3-(5-fluoro-1-((1-fluorocyclopentyl)methyl)-1H-pyrazol-4-yl)-6-methylpyridin-2-yl)quinoline] | 15 nM |
| Cc1ccc(-c2cnn(CC3(F)CCCC3)c2F)c(-c2cnc3c(c2)ncn3C)n1 [Example 23, 6-(3-(5-fluoro-1-((1-fluorocyclopentyl)methyl)-1H-pyrazol-4-yl)-6-methylpyridin-2-yl)-3-methyl-3H-imidazo[4,5-b]pyridine] | 121 nM |
| Cc1ccc(-c2cnn(CC3(F)CCCC3)c2F)c(-c2ccc3c(c2)ncn3C)n1 [Example 24] | 70 nM |
| COc1cc2ccc(-c3nc(C)ccc3-c3cnn(CC45CCC(CC4)C5)c3)cc2nn1 [Example 25, 7-(3-(1-(bicyclo[2.2.1]heptan-1-ylmethyl)-1H-pyrazol-4-yl)-6-methylpyridin-2-yl)-3-methoxycinnoline] | 10 nM |
| Cc1ccc(-c2cnn(CC34CCC(CC3)C4)c2)c(-c2ccc3cccnc3c2)n1 [Example 26, 7-(3-(1-(bicyclo[2.2.1]heptan-1-ylmethyl)-1H-pyrazol-4-yl)-6-methylpyridin-2-yl)quinoline] | 10 nM |
| Cc1ccc(-c2cnn(CC3CCC(F)(F)C3)c2)c(-c2ccc3cccnc3c2)n1 (stereo not shown) [Example 28, 7-(3-(1-((3,3-difluorocyclopentyl)methyl)-1H-pyrazol-4-yl)-6-methylpyridin-2-yl)quinoline] | 40 nM |
| Cc1ccc(-c2cnn(CC3(C)CCCC3)c2)c(-c2ccc3cc(F)cnc3c2)n1 [Example 32, 3-fluoro-7-(6-methyl-3-(1-((1-methylcyclopentyl)methyl)-1H-pyrazol-4-yl)pyridin-2-yl) quinoline] | 11 nM |
| Cc1ccc(-c2cnn(CC3(C)CCCC3)c2)c(-c2ccc3c(c2)C(=O)OC3)n1 [Example 33, 6-(6-methyl-3-(1-((1-methylcyclopentyl)methyl)-1H-pyrazol-4-yl)pyridin-2-yl) isobenzofuran-1(3H)-one] | 35 nM |
| Cc1ccc(-c2cnn(CC3(C)CCCC3)c2)c(-c2ccc3cn(C)nc3c2)n1 [Example 34, 2-methyl-6-(6-methyl-3-(1-((1-methylcyclopentyl)methyl)-1H-pyrazol-4-yl)pyridin-2-yl)-2H-indazole] | 57 nM |
| Cc1ccc(-c2cnn(CC3(C)CCCC3)c2)c(-c2ccc3ccn(C)c(=O)c3c2)n1 [Example 35, 2-methyl-7-(6-methyl-3-(1-((1-methylcyclopentyl)methyl)-1H-pyrazol-4-yl)pyridin-2-yl)isoquinolin-1(2H)-one] | 26 nM |
| COc1cc2ccc(-c3nc(C)ccc3-c3cnn(C(F)C4CCCC4)c3F)cc2nn1 (stereo not shown) [Example 36, 7-(3-(1-(cyclopentylfluoromethyl)-5-fluoro-1H-pyrazol-4-yl)-6-methylpyridin-2-yl)-3-methoxycinnoline] | 38 nM |
| COc1cc2ccc(-c3nc(C)ccc3-c3cnn(CC4CC5C(C4)C5(F)F)c3)cc2nn1 (stereo not shown) [Example 37, 7-(3-(1-((6,6-difluorobicyclo[3.1.0]hexan-3-yl)methyl)-1H-pyrazol-4-yl)-6-methylpyridin-2-yl)-3-methoxycinnoline] | 51 nM |
| N#Cc1ccc(-c2cnn(CC3CCCC3)c2)c(-c2ccc3ccnn3c2)n1 [Example 38, 5-(1-(cyclopentylmethyl)-1H-pyrazol-4-yl)-6-(pyrazolo[1,5-a]pyridin-6-yl)picolinonitrile] | 13 nM |
| Cn1ccc2ccc(-c3nc(C#N)ccc3-c3cnn(CC4CCCC4)c3)cc2c1=O [Example 39, 5-(1-(cyclopentylmethyl)-1H-pyrazol-4-yl)-6-(2-methyl-1-oxo-1,2-dihydroisoquinolin-7-yl)picolinonitrile] | 111 nM |
| N#Cc1ccc(-c2cnn(CC3(F)CCCC3)c2)c(-c2ccc3c(c2)C(=O)N(C2CC2)C3)n1 [Example 40, 6-(2-cyclopropyl-3-oxoisoindolin-5-yl)-5-(1-((1-fluorocyclopentyl)methyl)-1H-pyrazol-4-yl) picolinonitrile] | 13 nM |
| CN1Cc2ncc(-c3nc(C#N)ccc3-c3cnn(CC4(F)CCCC4)c3)cc2C1=O [Example 41, 5-(1-((1-fluorocyclopentyl)methyl)-1H-pyrazol-4-yl)-6-(6-methyl-5-oxo-6,7-dihydro-5H-pyrrolo[3,4-b]pyridin-3-yl)picolinonitrile] | 45 nM |
| N#Cc1ccc(-c2cnn(CC3(F)CCCC3)c2)c(-c2ccn3cnnc3c2)n1 [Example 42, 6-([1,2,4]triazolo[4,3-a]pyridin-7-yl)-5-(1-((1-fluorocyclopentyl)methyl)-1H-pyrazol-4-yl)picolinonitrile] | 32 nM |
| N#Cc1ccc(-c2cnn(CC3(F)CCCC3)c2)c(-c2ccn3ncnc3c2)n1 [Example 43, 6-([1,2,4]triazolo[1,5-a]pyridin-7-yl)-5-(1-((1-fluorocyclopentyl)methyl)-1H-pyrazol-4-yl)picolinonitrile] | 29 nM |
| Cc1nnc2cc(-c3nc(C#N)ccc3-c3cnn(CC4(F)CCCC4)c3)ccn12 [Example 44, 5-(1-((1-fluorocyclopentyl)methyl)-1H-pyrazol-4-yl)-6-(3-methyl-[1,2,4]triazolo [4,3-a]pyridin-7-yl)picolinonitrile] | 18 nM |
| CN1C(=O)c2cc(-c3nc(C#N)ccc3-c3cnn(CC4(F)CCCC4)c3)ccc2C1(C)C [Example 45, 5-(1-((1-fluorocyclopentyl)methyl)-1H-pyrazol-4-yl)-6-(1,1,2-trimethyl-3-oxoisoindolin-5-yl)picolinonitrile] | 64 nM |

Source: patent US11149036B2, “3-(1H-pyrazol-4-yl)pyridine allosteric modulators of the M4 muscarinic acetylcholine receptor” (Merck Sharp & Dohme Corp., priority 2017, dated 2021)
